Assay results from patent US11434242B2, “Dopamine-b-hydroxylase inhibitors” (BIAL-PORTELA & Cª, S.A., priority 2017, dated 2022).

Biological target: T1, Dopamine beta hydroxylase (Homo sapiens, UniProt P09172)
T1 construct: 125 μl of plasma; tissue Instituto Português do Sangue Transplantação; host or cells: human plasma from healthy donors
T1 sequence (P09172 40-617 limits assumed): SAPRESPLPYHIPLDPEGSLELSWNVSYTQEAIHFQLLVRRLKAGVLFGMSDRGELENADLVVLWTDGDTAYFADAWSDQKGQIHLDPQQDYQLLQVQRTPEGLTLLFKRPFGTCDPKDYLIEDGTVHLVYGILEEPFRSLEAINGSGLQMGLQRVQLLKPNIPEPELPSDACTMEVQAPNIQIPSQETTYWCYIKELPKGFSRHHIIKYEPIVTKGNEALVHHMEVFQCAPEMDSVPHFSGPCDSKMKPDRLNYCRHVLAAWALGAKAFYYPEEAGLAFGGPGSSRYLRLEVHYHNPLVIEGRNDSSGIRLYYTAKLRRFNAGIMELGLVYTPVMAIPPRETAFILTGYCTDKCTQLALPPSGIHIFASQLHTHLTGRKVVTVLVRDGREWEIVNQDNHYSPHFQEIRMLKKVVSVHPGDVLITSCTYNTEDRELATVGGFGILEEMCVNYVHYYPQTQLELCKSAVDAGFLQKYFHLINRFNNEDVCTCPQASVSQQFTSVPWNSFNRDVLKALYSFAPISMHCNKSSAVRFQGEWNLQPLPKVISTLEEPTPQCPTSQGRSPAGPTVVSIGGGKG
Assay: Dopamine beta hydroxylase activity in human plasma
Type: biochemical
Settings: for Plasma (0.01 μM), activity in % of control: inhibitor 0.01 μM; for Plasma (0.1 μM), activity in % of control: inhibitor 0.1 μM
Outline: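 Octopamine production from tyramine over 45 min at 37° C, measured photometrically at 330 nm after SCX extraction and periodate oxidation against an octopamine standard curve, indicates plasma DβH activity. Compounds tested at final 10, 100 and 1000 nM in human plasma, pH 5.0 cofactor buffer, 10 min preincubation; results as % of control.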

Row | Compound | Plasma (0.01 μM), activity in % of control | Plasma (0.1 μM), activity in % of control
1 | O=C(Cc1[nH]c(=S)n2c1C[C@H](c1c(F)c(F)cc(F)c1F)C2)NC1CCOCC1 [Example 377, (R)—N-(tetrahydro-2H-pyran-4-yl)-2-(3-thioxo-6-(2,3,5,6-tetrafluorophenyl)-2,5,6,7-tetrahydro-3H-pyrrolo[1,2-c]imidazol-1-yl)acetamide] | 102.0 % of control | 56.8 % of control
2 | CN(C(=O)Cc1[nH]c(=S)n2c1C[C@H](c1c(F)c(F)cc(F)c1F)C2)C1CCOCC1 [Example 378, (R)—N-methyl-2-(6-(2,3,5,6-tetrafluorophenyl)-3-thioxo-2,5,6,7-tetrahydro-3H-pyrrolo[1,2-c]imidazol-1-yl)-N-(tetrahydro-2H-pyran-4-yl)acetamide] | 110.2 % of control | 52.6 % of control
3 | CN(C(=O)Cc1[nH]c(=S)n2c1C[C@H](c1c(F)ccc(F)c1F)C2)C1CCOCC1 [Example 379, (R)—N-methyl-2-(6-(2,3,6-trifluorophenyl)-3-thioxo-2,5,6,7-tetrahydro-3H-pyrrolo[1,2-c]imidazol-1-yl)-N-(tetrahydro-2H-pyran-4-yl)acetamide] | 108.7 % of control | 50.1 % of control
4 | CN(C(=O)Cc1[nH]c(=S)n2c1C[C@@H](c1c(F)ccc(Cl)c1F)C2)C1CCOCC1 [Example 380, (S)-2-(6-(3-chloro-2,6-difluorophenyl)-3-thioxo-2,5,6,7-tetrahydro-3H-pyrrolo[1,2-c]imidazol-1-yl)-N-methyl-N-(tetrahydro-2H-pyran-4-yl)acetamide] | 74.9 % of control | 27.4 % of control
5 | CN(C(=O)Cc1[nH]c(=S)n2c1[C@@H]1C[C@]1(c1c(F)ccc(Cl)c1F)C2)C1CCOCC1 [Example 381, 2-((5aS,6aR)-5a-(3-chloro-2,6-difluorophenyl)-3-thioxo-2,3,5,5a,6,6a-hexahydrocyclopropa[3,4]pyrrolo[1,2-c]imidazol-1-yl)-N-methyl-N-(tetrahydro-2H-pyran-4-yl)acetamide] | 30.0 % of control | 3.2 % of control
6 | Cn1c(CC(=O)N[C@@H]2CCCOC2)c2n(c1=S)C[C@H](c1c(F)ccc(Br)c1F)C2 [Example 382, 2-((S)-6-(3-bromo-2,6-difluorophenyl)-2-methyl-3-thioxo-2,5,6,7-tetrahydro-3H-pyrrolo[1,2-c]imidazol-1-yl)-N—((R)-tetrahydro-2H-pyran-3-yl)acetamide] | 37.6 % of control | 6.0 % of control
7 | CN(C(=O)Cc1c2n(c(=S)n1C)C[C@H](c1c(F)ccc(Cl)c1F)C2)C1CCOC1 (stereo partly drawn) [Example 383, 2-((S)-6-(3-chloro-2,6-difluorophenyl)-2-methyl-3-thioxo-2,5,6,7-tetrahydro-3H-pyrrolo[1,2-c]imidazol-1-yl)-N-methyl-N-(tetrahydrofuran-3-yl)acetamide] | 65.6 % of control | 14.8 % of control
8 | CN(C(=O)Cc1[nH]c(=S)n2c1C[C@@H](c1c(F)ccc(Cl)c1F)C2)C1CCOC1 (stereo partly drawn) [Example 384, 2-((S)-6-(3-chloro-2,6-difluorophenyl)-3-thioxo-2,5,6,7-tetrahydro-3H-pyrrolo[1,2-c]imidazol-1-yl)-N-methyl-N-(tetrahydrofuran-3-yl)acetamide] | 104.5 % of control | 43.4 % of control
9 | Cn1c(CC(=O)N[C@H]2CCOC2)c2n(c1=S)C[C@H](c1c(F)ccc(Cl)c1F)C2 [Example 385, 2-((S)-6-(3-chloro-2,6-difluorophenyl)-2-methyl-3-thioxo-2,5,6,7-tetrahydro-3H-pyrrolo[1,2-c]imidazol-1-yl)-N—((S)-tetrahydrofuran-3-yl)acetamide] | 68.1 % of control | 19.3 % of control
10 | O=C(Cc1[nH]c(=S)n2c1C[C@H](c1c(F)c(F)cc(F)c1F)C2)N[C@@H]1CCCOC1 [Example 386, N—((R)-tetrahydro-2H-pyran-3-yl)-2-((R)-3-thioxo-6-(2,3,5,6-tetrafluorophenyl)-2,5,6,7-tetrahydro-3H-pyrrolo[1,2-c]imidazol-1-yl)acetamide] | 101.8 % of control | 79.4 % of control
11 | CN1CCC(NC(=O)Cc2c3n(c(=S)n2C)C[C@@H](c2c(F)ccc(F)c2F)C3)C1=O (stereo partly drawn) [Example 388, N-(1-methyl-2-oxopyrrolidin-3-yl)-2-((R)-2-methyl-3-thioxo-6-(2,3,6-trifluorophenyl)-2,5,6,7-tetrahydro-3H-pyrrolo[1,2-c]imidazol-1-yl)acetamide] | 80.8 % of control | 71.1 % of control
12 | CN1C[C@@H](NC(=O)Cc2c3n(c(=S)n2C)C[C@@H](c2c(F)ccc(F)c2F)C3)CC1=O [Example 389, 2-((R)-2-methyl-3-thioxo-6-(2,3,6-trifluorophenyl)-2,5,6,7-tetrahydro-3H-pyrrolo[1,2-c]imidazol-1-yl)-N—((S)-1-methyl-5-oxopyrrolidin-3-yl)acetamide] | 75.2 % of control | 33.1 % of control
13 | Cn1c(CC(=O)N2CC[C@@H](C#N)C2)c2n(c1=S)C[C@@H](c1c(F)ccc(F)c1F)C2 [Example 390, (R)-1-(2-((R)-2-methyl-3-thioxo-6-(2,3,6-trifluorophenyl)-2,5,6,7-tetrahydro-3H-pyrrolo[1,2-c]imidazol-1-yl)acetyl)pyrrolidine-3-carbonitrile] | 75.0 % of control | 52.0 % of control
14 | O=C(Cc1[nH]c(=S)n2c1[C@@H]1C[C@]1(c1c(F)ccc(Cl)c1F)C2)N[C@@H]1CCOC1 [Example 392, 2-((5aS,6aR)-5a-(3-chloro-2,6-difluorophenyl)-3-thioxo-2,3,5,5a,6,6a-hexahydrocyclopropa[3,4]pyrrolo[1,2-c]imidazol-1-yl)-N—((R)-tetrahydrofuran-3-yl)acetamide] | 62.3 % of control | 13.2 % of control
15 | O=C(Cc1[nH]c(=S)n2c1C[C@H](c1c(F)c(F)cc(F)c1F)C2)NC1COC1 [Example 393, (R)—N-(oxetan-3-yl)-2-(6-(2,3,5,6-tetrafluorophenyl)-3-thioxo-2,5,6,7-tetrahydro-3H-pyrrolo[1,2-c]imidazol-1-yl)acetamide] | 90.6 % of control | 65.7 % of control
16 | Cn1c(CC(=O)NC2COC2)c2n(c1=S)C[C@@H](c1c(F)c(F)cc(F)c1F)C2 [Example 394, (R)-2-(2-methyl-6-(2,3,5,6-tetrafluorophenyl)-3-thioxo-2,5,6,7-tetrahydro-3H-pyrrolo[1,2-c]imidazol-1-yl)-N-(oxetan-3-yl)acetamide] | 92.1 % of control | 47.6 % of control
17 | O=C(Cc1[nH]c(=S)n2c1C[C@H](c1c(F)c(F)cc(F)c1F)C2)NC[C@@H]1CCCO1 [Example 395, 2-((R)-6-(2,3,5,6-tetrafluorophenyl)-3-thioxo-2,5,6,7-tetrahydro-3H-pyrrolo[1,2-c]imidazol-1-yl)-N—(((S)-tetrahydrofuran-2-yl)methyl)acetamide] | 96.9 % of control | 47.8 % of control
18 | CN(C(=O)Cc1[nH]c(=S)n2c1[C@@H]1C[C@]1(c1c(F)ccc(Cl)c1F)C2)C1CCOC1 (stereo partly drawn) [Example 396, 2-((5aS,6aR)-5a-(3-chloro-2,6-difluorophenyl)-3-thioxo-2,3,5,5a,6,6a-hexahydrocyclopropa[3,4]pyrrolo[1,2-c]imidazol-1-yl)-N-methyl-N-(tetrahydrofuran-3-yl)acetamide] | 66.9 % of control | 10.8 % of control
19 | Cn1c(CC(=O)NCC2CCOCC2)c2n(c1=S)C[C@@H](c1c(F)c(F)cc(F)c1F)C2 [Example 397, (R)-2-(2-methyl-6-(2,3,5,6-tetrafluorophenyl)-3-thioxo-2,5,6,7-tetrahydro-3H-pyrrolo[1,2-c]imidazol-1-yl)-N-((tetrahydro-2H-pyran-4-yl)methyl)acetamide] | 79.9 % of control | 24.1 % of control
20 | CN(C(=O)Cc1c2n(c(=S)n1C)C[C@@H](c1c(F)c(F)cc(F)c1F)C2)C1COC1 [Example 398, (R)—N-methyl-2-(2-methyl-6-(2,3,5,6-tetrafluorophenyl)-3-thioxo-2,5,6,7-tetrahydro-3H-pyrrolo[1,2-c]imidazol-1-yl)-N-(oxetan-3-yl)acetamide] | 94.3 % of control | 23.0 % of control
